Experimental data published in ChEMBL document CHEMBL1137256, “Iminosugars as potential inhibitors of glycogenolysis: structural insights into the molecular basis of glycogen phosphorylase inhibition” (J Med Chem, 2006).
Blank lines part the entries; values can stand above or below the molecule they belong to. Active and inactive are the calls of the source. The rule behind the calls is not given here.

Legend:
Hepatocyte [1] = assay: cells; settings: Homo sapiens
Description: Inhibition of glycogen degradation in hepatocytes

Hepatocyte [2] = assay: cells; settings: Homo sapiens; remark: listed apart in the source
Description: Inhibition of glucagon-stimulated glycogen degradation in hepatocytes

Liver = assay: Inhibition of liver […]; format: functional, tissue-based; settings: Homo sapiens
Mus musculus = species on record: Mus musculus; assay: Antihyperglycemic activity in obese mouse; format: functional, organism-based
[3] = target: T1, Glycogen phosphorylase, liver form (Rattus norvegicus, UniProt P09811); assay: Inhibition of phosphorylated form of rat liver glycogen phosphorylase
T1 sequence (P09811 whole entry): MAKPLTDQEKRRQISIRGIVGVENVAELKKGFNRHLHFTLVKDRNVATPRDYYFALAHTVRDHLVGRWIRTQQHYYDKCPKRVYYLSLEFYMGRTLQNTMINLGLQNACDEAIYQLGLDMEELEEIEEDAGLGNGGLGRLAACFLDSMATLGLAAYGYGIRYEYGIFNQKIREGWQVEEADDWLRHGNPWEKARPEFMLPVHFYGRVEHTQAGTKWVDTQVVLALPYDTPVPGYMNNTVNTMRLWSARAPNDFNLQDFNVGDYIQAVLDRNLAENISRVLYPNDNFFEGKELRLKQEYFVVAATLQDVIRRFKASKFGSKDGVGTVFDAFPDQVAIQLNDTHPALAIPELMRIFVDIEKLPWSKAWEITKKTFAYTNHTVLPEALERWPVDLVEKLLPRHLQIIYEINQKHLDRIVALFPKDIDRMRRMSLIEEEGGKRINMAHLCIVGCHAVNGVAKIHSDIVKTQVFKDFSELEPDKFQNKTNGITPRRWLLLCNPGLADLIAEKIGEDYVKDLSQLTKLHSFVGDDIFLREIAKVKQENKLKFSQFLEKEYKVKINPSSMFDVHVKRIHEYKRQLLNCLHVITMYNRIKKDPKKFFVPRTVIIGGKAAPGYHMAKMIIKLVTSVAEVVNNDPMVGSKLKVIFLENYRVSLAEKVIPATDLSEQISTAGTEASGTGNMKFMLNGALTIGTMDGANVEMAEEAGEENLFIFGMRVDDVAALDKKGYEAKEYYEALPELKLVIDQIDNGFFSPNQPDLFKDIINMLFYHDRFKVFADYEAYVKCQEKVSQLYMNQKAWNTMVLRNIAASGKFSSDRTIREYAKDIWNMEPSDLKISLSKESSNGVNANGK

Structure (SMILES): OC[C@H]1CNC[C@@H](O)[C@@H]1O [AFEGOSTAT]
IC50 (Hepatocyte [1]): 3000 nM | IC50 (Hepatocyte [2]): 2000 nM

Structure (SMILES): OC[C@H]1NC[C@@H](O)[C@@H]1O
Activity (Liver): Active | Activity (Mus musculus): Active

IC50 [3]: 1220 nM
Structure (SMILES): OC[C@H]1CN(CCCc2ccccc2)C[C@@H](O)[C@@H]1O
